This is an account of results in PMC4363317, “A Highly Efficient Recombinant Laccase from the Yeast Yarrowia lipolytica and Its Application in the Hydrolysis of Biomass” (PLoS ONE, 2015).

This assay concerns the target T1, YlLac (Yarrowia lipolytica, UniProt G1C1M2).
T1 construct: ORF 519 residues incl; 19-residue native signal (abstract instead calls the mature protein 519 aa); expressed without native signal behind alpha-factor signal (pPICZalphaA-Wsp-YlLac) in Pichia pastoris KM71H; forward primer GCCATTGGCCCGGTGACC encodes AIGPVT; monomer, glycosylated ~67-68 kDa, ~55 kDa after endoH
T1 sequence (G1C1M2 20-519): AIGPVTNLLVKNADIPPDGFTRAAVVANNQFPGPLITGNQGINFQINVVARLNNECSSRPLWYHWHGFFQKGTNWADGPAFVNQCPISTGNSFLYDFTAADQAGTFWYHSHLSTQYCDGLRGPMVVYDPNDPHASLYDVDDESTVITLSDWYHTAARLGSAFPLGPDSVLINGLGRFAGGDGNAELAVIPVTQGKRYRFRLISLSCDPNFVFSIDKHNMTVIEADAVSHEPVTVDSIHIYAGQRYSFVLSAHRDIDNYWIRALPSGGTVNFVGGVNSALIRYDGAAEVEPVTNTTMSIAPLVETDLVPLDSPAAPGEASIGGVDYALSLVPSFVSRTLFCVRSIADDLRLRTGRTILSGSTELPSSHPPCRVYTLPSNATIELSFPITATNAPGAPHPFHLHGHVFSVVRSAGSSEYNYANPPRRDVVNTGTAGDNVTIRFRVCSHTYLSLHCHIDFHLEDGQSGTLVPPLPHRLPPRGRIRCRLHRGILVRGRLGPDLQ
Description: biochemical. The arrangement: spectrophotometric ABTS oxidation by purified recombinant YlLac with inhibitor, 50 mM sodium acetate pH 4.8. To be noted: 0.1 mM ABTS, pH 4.8, read-out: % of control remaining; for remaining activity at 100 µM: 0.1 mM; for remaining activity at 500 µM: 0.5 mM; for remaining activity at 1000 µM: 1 mM. The method, then: Sodium dodecyl sulfate polyacrylamide gel electrophoresis (SDS-PAGE; 12% w/v polyacrylamide) was performed as described by Laemmli. The native molecular mass was determined by applying samples to a calibrated Sephacryl S-300 HR 16/60 column as recommended by the supplier (GE Healthcare). Purified recombinant YlLac was treated with endoglycosidase H (NEB, Biolabs UK) according to the manufacturer's protocol. YlLac (6 μg) in 1× glycoprotein denaturing buffer was boiled for 10 min. After cooling, 1 μl of endoglycosidase H was added and the sample was incubated at 37°C overnight. The product of endoglycosidase H treatment was analyzed by SDS-PAGE. Protein bands were stained with Coomassie brilliant blue R-250 (Sigma). The zymogram process was carried out using native PAGE, and the enzyme band was visualized by incubating the gel in 50 mM sodium acetate buffer (pH 4.8) containing 0.1 mM ABTS and 2,6-DMP at room temperature. The UV-vis absorption spectrum of purified laccase was recorded at 25°C on a spectrophotometer (Shimadzu, model UV-1800, Tokyo) in 2 cm path length quartz cells. The effects of pH on laccase activity for various substrates were tested at pH 2–6 in 50 mM citrate-phosphate buffer (pH 2–4) or 50 mM sodium-acetate buffer (pH 4–6). The activity of purified laccase towards the ABTS substrate was examined at 20–80°C at the optimal pH value. The rates of substrate oxidation were determined by measuring the absorbance increases at the respective wavelengths, and the molar extinction coefficients (ε) were obtained from the literature. The effects of various inhibitors and metal ions on the activity of purified laccase were determined using assay mixtures (2 ml) containing appropriately diluted enzyme, 50 mM sodium acetate buffer (pH 4.8), and 0.1 mM ABTS with various concentrations of inhibitors or 5 mM metal ions. Laccase activity in the absence of inhibitor or metal ions was defined as 100%. Measurements were carried out in triplicate. K m and V max values of purified YlLac were determined by measuring the activity of the enzyme with various concentrations (0.01–0.1 mM) of ABTS and 2,6-DMP substrates at the optimal condition in each case. Ki A number of compounds were examined for their effects on YlLac activity, including small ions [compound left out], sulfhydryl group-containing redox reagents (L-cysteine and dithiothreitol, […]), denaturants (thiourea), and a chelator (EDTA) (S2 Table). […] Enzyme activity was not observed in the presence of 0.1 mM NaN3. SDS caused partial inhibition and the metal chelating agent EDTA caused no inhibition. Metal ions such as Cr^3+, Mg^2+, and Mn^2+ inhibited 25%, 24%, and 24% of YlLac activity, respectively.

In the case of `O[C@@H](CS)[C@@H](O)CS` (racemic) [Dithiothreitol], the remaining activity at 100 µM was determined as 61.1 ± 2.4%, the remaining activity at 500 µM came out at 2 ± 0.4% and the remaining activity at 1000 µM came to 0%.

Consider `NC(N)=S` [Thiourea], for which the remaining activity at 100 µM turned out to be 91.1 ± 2.1%, the remaining activity at 500 µM was determined as 42.2 ± 2% and the remaining activity at 1000 µM was determined as 12.3 ± 1.5%.

`N[C@@H](CS)C(=O)O` [l-Cysteine]: the remaining activity at 100 µM came to 76.6 ± 2.1%, the remaining activity at 500 µM was found to be 11.1 ± 1.5% and the remaining activity at 1000 µM was determined as 0%.
